Laboratory results: ChEMBL document CHEMBL5291721, “A preclinical secondary pharmacology resource illuminates target-adverse drug reaction associations of marketed drugs” (Nat Commun, 2023)

Legend:
[1] = biological target: Histamine H2 receptor (Homo sapiens, UniProt P25021); type: functional, cell-based
[2] = biological target: D(3) dopamine receptor (Homo sapiens, UniProt P35462)
[3] = biological target: T1, Alpha-2A adrenergic receptor (Homo sapiens, UniProt P08913); type: functional, cell-based
T1 sequence (P08913 whole entry): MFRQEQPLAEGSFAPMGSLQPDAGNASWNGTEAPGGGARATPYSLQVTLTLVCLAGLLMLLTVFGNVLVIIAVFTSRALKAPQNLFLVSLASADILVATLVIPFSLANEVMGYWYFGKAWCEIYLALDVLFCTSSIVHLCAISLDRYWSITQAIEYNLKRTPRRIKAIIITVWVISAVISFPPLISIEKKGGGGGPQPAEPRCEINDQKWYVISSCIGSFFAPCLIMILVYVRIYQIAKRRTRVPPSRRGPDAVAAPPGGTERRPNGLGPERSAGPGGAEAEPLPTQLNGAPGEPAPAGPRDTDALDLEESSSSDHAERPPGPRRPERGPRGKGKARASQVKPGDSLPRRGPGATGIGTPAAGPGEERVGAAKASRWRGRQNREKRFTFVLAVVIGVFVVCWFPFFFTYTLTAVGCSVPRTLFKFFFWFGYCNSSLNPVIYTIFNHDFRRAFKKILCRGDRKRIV

[4] = biological target: Glutamate receptor ionotropic, NMDA 1 (Rattus norvegicus, UniProt P35439)
[5] = biological target: Melanocortin receptor 3 (Homo sapiens, UniProt P41968)
[6] = biological target: Neuronal acetylcholine receptor subunit alpha-4 (Homo sapiens, UniProt P43681)
[7] = biological target: T2, Type-1 angiotensin II receptor (Homo sapiens, UniProt P30556)
T2 sequence (P30556 whole entry): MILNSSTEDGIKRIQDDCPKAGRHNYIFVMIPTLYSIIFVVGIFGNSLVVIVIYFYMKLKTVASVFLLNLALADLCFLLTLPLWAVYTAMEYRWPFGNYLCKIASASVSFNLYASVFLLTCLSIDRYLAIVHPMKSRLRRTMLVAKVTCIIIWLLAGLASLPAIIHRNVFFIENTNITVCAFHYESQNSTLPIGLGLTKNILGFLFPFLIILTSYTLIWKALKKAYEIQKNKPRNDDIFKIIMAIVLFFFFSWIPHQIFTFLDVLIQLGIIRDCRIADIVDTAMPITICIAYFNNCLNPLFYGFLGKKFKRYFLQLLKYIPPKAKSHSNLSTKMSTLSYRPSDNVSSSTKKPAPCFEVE

[8] = biological target: T3, Adenosine receptor A3 (Homo sapiens, UniProt P0DMS8)
T3 sequence (P0DMS8 whole entry): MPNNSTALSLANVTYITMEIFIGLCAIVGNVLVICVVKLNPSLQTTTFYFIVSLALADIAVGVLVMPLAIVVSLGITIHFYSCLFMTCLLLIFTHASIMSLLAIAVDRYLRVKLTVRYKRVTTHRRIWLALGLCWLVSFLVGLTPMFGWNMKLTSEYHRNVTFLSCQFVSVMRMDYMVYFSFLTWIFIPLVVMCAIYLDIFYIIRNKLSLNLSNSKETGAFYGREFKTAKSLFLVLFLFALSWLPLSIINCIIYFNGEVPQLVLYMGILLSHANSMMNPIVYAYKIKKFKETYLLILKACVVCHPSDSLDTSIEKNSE

[9] = biological target: T4, Alpha-1A adrenergic receptor (Homo sapiens, UniProt P35348); type: functional, cell-based
T4 sequence (P35348 whole entry): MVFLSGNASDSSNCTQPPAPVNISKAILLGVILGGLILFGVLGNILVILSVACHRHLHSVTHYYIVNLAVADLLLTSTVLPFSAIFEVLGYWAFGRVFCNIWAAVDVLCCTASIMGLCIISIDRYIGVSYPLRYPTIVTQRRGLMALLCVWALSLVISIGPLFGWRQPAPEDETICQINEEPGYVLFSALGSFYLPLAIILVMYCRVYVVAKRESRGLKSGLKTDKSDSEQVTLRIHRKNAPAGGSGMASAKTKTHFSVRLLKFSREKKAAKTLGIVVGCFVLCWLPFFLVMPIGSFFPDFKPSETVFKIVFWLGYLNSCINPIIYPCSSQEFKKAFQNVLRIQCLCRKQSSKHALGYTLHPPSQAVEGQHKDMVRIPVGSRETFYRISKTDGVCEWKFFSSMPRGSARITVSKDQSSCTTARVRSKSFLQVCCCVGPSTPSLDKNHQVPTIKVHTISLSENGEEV

[10] = biological target: Vasopressin V2 receptor (Homo sapiens, UniProt P30518)
[11] = biological target: T5, Adenosine receptor A1 (Homo sapiens, UniProt P30542)
T5 sequence (P30542 whole entry): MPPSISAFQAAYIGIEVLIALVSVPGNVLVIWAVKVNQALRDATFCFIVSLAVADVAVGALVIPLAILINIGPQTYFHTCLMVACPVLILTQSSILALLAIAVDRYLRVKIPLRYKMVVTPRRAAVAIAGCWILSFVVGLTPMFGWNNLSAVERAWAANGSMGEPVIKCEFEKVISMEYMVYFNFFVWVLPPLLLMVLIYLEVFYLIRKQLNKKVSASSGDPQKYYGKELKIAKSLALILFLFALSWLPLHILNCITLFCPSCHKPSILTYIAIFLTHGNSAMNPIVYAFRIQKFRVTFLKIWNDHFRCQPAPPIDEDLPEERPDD

[12] = biological target: Beta-1 adrenergic receptor (Homo sapiens, UniProt P08588); type: functional
[13] = biological target: Gamma-aminobutyric acid receptor subunit alpha-1 (Rattus norvegicus, UniProt P62813); type: functional
[14] = biological target: T6, Muscarinic acetylcholine receptor M2 (Homo sapiens, UniProt P08172); type: functional, cell-based
T6 sequence (P08172 whole entry): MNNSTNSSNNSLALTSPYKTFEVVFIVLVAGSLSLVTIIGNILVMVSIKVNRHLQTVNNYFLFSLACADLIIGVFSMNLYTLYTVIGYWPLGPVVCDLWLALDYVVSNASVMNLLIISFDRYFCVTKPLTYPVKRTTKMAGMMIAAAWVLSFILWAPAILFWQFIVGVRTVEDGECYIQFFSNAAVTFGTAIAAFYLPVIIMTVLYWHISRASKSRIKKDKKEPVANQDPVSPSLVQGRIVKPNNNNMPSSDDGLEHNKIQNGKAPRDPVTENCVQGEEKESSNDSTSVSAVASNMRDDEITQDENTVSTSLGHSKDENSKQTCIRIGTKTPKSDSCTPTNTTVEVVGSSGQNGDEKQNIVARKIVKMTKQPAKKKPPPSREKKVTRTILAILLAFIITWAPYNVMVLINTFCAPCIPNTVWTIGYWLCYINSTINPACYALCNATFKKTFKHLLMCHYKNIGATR
Further: assay procedure not described here.

D(3) dopamine receptor, sequence (P35462 whole entry): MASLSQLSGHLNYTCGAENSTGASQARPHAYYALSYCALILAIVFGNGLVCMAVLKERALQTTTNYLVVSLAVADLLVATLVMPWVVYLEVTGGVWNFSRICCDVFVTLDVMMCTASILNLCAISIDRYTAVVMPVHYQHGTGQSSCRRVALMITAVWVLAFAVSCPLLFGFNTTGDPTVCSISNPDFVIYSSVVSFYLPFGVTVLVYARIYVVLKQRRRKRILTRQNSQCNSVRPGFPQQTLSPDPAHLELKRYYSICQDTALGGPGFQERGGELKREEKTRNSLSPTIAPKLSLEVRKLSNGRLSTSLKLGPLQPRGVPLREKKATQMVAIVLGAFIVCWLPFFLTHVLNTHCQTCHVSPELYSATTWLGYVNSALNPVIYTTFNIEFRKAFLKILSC
Beta-1 adrenergic receptor, sequence (P08588 whole entry): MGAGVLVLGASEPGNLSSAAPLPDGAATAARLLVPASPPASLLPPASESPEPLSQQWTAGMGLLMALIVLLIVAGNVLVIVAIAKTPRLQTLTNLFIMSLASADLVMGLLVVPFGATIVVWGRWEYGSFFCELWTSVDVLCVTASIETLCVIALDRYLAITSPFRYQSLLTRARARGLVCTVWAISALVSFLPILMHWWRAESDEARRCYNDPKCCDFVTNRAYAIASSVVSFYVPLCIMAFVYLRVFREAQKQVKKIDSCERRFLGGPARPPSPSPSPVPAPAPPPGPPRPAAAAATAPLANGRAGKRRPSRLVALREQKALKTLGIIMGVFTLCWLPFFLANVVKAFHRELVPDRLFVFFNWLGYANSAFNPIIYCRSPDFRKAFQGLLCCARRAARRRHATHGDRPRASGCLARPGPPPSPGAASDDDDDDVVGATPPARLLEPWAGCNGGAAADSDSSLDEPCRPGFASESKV
Vasopressin V2 receptor, sequence (P30518 whole entry): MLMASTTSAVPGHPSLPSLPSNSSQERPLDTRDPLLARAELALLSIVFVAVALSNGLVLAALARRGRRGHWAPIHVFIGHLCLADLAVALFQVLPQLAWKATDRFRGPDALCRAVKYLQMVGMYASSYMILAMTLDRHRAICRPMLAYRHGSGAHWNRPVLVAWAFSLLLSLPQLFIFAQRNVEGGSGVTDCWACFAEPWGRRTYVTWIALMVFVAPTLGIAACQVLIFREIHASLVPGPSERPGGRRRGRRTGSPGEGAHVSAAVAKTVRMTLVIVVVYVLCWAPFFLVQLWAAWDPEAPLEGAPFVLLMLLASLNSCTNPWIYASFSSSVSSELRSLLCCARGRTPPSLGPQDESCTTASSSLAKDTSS
Histamine H2 receptor, sequence (P25021 whole entry): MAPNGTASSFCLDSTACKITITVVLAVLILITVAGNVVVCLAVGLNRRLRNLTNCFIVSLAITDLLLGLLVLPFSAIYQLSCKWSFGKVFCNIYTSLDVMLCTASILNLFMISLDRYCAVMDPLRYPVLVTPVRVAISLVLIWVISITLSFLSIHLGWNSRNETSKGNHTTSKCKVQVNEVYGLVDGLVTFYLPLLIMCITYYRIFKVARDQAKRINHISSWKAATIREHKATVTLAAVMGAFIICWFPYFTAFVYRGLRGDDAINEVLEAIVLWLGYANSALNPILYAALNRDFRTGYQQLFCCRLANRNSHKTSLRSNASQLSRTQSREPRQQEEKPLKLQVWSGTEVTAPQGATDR
Neuronal acetylcholine receptor subunit alpha-4, sequence (P43681 whole entry): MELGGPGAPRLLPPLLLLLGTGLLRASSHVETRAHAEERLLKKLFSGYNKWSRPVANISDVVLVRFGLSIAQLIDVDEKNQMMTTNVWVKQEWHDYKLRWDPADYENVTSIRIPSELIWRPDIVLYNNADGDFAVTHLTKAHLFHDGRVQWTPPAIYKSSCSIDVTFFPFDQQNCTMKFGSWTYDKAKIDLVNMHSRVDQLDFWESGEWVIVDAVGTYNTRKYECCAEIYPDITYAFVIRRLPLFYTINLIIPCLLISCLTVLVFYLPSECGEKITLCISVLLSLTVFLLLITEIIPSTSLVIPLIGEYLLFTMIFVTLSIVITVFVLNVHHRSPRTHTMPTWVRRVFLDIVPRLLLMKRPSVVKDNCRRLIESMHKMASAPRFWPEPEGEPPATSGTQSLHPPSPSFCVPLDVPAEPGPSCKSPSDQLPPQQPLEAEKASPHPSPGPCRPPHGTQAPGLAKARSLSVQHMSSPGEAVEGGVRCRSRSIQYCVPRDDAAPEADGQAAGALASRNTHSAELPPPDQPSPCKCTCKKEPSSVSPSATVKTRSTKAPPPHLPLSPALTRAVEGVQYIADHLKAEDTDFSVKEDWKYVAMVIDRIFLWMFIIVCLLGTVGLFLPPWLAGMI
Melanocortin receptor 3, sequence (P41968 whole entry): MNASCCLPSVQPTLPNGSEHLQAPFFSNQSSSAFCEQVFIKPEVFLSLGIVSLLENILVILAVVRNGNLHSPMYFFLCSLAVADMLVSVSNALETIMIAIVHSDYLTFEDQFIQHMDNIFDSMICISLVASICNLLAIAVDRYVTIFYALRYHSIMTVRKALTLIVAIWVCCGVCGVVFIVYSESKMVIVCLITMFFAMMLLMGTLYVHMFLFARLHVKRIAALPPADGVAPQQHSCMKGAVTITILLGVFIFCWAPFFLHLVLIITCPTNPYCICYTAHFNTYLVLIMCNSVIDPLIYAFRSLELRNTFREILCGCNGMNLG
Gamma-aminobutyric acid receptor subunit alpha-1, sequence (P62813 whole entry): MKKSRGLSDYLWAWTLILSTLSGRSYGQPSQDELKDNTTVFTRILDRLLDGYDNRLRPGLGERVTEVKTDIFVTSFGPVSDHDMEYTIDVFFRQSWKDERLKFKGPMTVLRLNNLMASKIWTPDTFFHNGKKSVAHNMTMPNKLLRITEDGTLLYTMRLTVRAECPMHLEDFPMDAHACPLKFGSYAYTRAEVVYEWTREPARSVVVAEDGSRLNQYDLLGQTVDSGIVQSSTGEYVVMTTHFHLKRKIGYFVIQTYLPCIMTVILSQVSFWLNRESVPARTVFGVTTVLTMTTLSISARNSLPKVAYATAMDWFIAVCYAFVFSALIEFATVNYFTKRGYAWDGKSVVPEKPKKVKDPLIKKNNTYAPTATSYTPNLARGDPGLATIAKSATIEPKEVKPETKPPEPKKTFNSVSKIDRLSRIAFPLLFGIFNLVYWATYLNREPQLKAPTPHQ

Compound | AC50 [1] | AC50 [2] | AC50 [3] | AC50 [4] | AC50 [5] | AC50 [6] | AC50 [7] | AC50 [8] | AC50 [9] | AC50 [10] | AC50 [11] | AC50 [12] | AC50 [13] | AC50 [14]
C[N+]12CCC(CC1)C(OC(=O)C(O)(c1ccccc1)c1ccccc1)C2 (configuration not stated) | > 30 µM | > 30 µM | > 30 µM | > 30 µM | > 30 µM | > 30 µM | > 30 µM | > 30 µM | > 30 µM | > 30 µM | > 30 µM | > 30 µM | > 30 µM | 
O=C(CCCN1CCC(O)(c2ccc(Br)cc2)CC1)c1ccc(F)cc1 [BROMPERIDOL] | > 30 µM | 0.041 µM |  | > 30 µM | > 30 µM | > 30 µM | > 30 µM | > 30 µM | > 30 µM | > 30 µM | > 30 µM | > 30 µM | > 30 µM | > 30 µM
CO/N=C(\C(=O)N[C@@H]1C(=O)N2C(C(=O)O)=CCS[C@H]12)c1csc(N)n1 [CEFTIZOXIME] | > 30 µM |  | > 30 µM |  | > 30 µM | > 30 µM | > 30 µM | > 30 µM | > 30 µM | > 30 µM | > 30 µM | > 30 µM |  | > 30 µM
COc1cc(N)c(Cl)cc1C(=O)NC1CCN(CCCOc2ccc(F)cc2)CC1OC (configuration not stated) [CISAPRIDE] | > 10 µM | 6.3 µM |  | > 10 µM | > 30 µM | > 10 µM | > 30 µM | > 30 µM | > 30 µM | > 30 µM | > 30 µM | > 10 µM | > 10 µM | > 10 µM
CCOC(=O)c1ncn2c1CN(C)C(=O)c1cc(F)ccc1-2 [FLUMAZENIL] | > 30 µM | > 30 µM | > 30 µM | > 30 µM | > 30 µM | > 30 µM | > 30 µM | > 30 µM | > 30 µM | > 30 µM | > 30 µM | > 30 µM |  | > 30 µM
Cc1ccnc2c1NC(=O)c1cccnc1N2C1CC1 [NEVIRAPINE] | > 10 µM | > 10 µM | > 10 µM | > 10 µM | > 30 µM |  | > 30 µM | 1.02 µM | > 30 µM | > 30 µM | 31.2 µM | > 10 µM | > 10 µM | > 10 µM
CO[C@H]1C[C@H](O[C@H]2CC[C@@]3(C)[C@H](CC[C@@H]4[C@@H]3CC[C@]3(C)[C@@H](C5=CC(=O)OC5)[C@@H](OC(C)=O)C[C@]43O)C2)O[C@@H](C)[C@@H]1O [OLEANDRIN] | > 30 µM | > 30 µM | > 30 µM | > 30 µM |  |  |  |  | > 30 µM |  |  |  | > 30 µM | > 30 µM
C=CCN1CCc2nc(N)sc2CC1 [TALIPEXOLE] | > 30 µM | 0.48 µM |  | > 30 µM | > 30 µM | > 30 µM | > 30 µM | > 30 µM | 2.5 µM | > 30 µM | > 30 µM | > 30 µM | > 30 µM | > 30 µM
CC(C)(C)NCC(O)c1ccccc1Cl (configuration not stated) [TULOBUTEROL] | > 30 µM | > 30 µM | > 30 µM | > 30 µM | > 30 µM | > 30 µM | > 30 µM | > 30 µM | > 30 µM | > 30 µM | > 30 µM |  | > 30 µM | > 30 µM
CC(C(=O)O)c1ccc2c(c1)CC(=O)c1ccccc1S2 (configuration not stated) [ZALTOPROFEN] | > 30 µM | > 30 µM | > 30 µM | > 30 µM | > 30 µM | > 30 µM | > 30 µM | > 30 µM | > 30 µM | > 30 µM | > 30 µM |  | > 30 µM | > 30 µM
